What was measured:
breast cancer cells = details: Yi et al., 2013; cited from earlier work
human spermatozoa [1] = experiment: Sperm viability by eosin-nigrosin staining; type: cell-based; details: 6 hours, capacitating conditions
Protocol: For sperm preparation, semen samples were collected by masturbation into sterile cups after 2-4 days of sexual abstinence. Samples were left to liquefy for up 2 hours at 37° C. to complete liquefaction prior to processing as described below. Only ejaculates whose semen parameters (total fluid volume, sperm concentration, motility and morphology) meet the (2010) normality criteria established by the WHO (2010) were processed. Ejaculates were submitted to discontinuous gradient centrifugation (Sperm Wash Gradient Set (45% and 90%)) for 20 min at 300 g at room temperature. […] The pellet was then resuspended in 1 mL of non-capacitating (NC) media and sperm concentration was determined using a Neubauer counting chamber under an optical microscope (×100 magnification). Due to the low number of spermatozoa obtained in each ejaculate, different ejaculates were pooled for different assessments. Finally, depending on experimental design spermatozoa were diluted in 1 ml of capacitating (CAP media containing 26 mg/mL of BSA and 25 mM of bicarbonate) or NC at a final concentration of 20×10^6/ml for 6 hours at 37° C. in presence or absence of the activator. […]
For determination of sperm viability, the instructions by the WHO (2010) were followed, sperm viability was assessed by eosin-nigrosin staining technique. […] A total of 200 spermatozoa were counted in random fields under a bright-field microscope. […]

renal fibroblast = details: Ponnusamy et al., 2015; cited from earlier work
human spermatozoa [2] = experiment: Protein tyrosine phosphorylation (sperm capacitation hallmark) by anti-phosphotyrosine western blot; type: cell-based
Protocol: For sperm incubations Biggers-Whitten-Whittingham (BWW) media described by Biggers J D et al. (1971) with slightly modifications was used. BBW-washed (BWW-W): 94.5 mM NaCl, 4.8 mM KCl, 1.7 mM CaCl2×2H2O, 1.17 mM KH2PO4, 1.22 mM MgSO4×7H2O, 20 mM HEPES. Non capacitation media (NC) contains all the component of BWW-washed plus 5.56 mM glucose and gentamycin 10 mg/mL. Capacitating media (CAP): contains all the component of NC plus 25 mM of HCO3 and 26 mg of Bovine Serum Albumin (BSA). All the media were balanced to a final pH 7.2-7.4
For sperm preparation, semen samples were collected by masturbation into sterile cups after 2-4 days of sexual abstinence. Samples were left to liquefy for up 2 hours at 37° C. to complete liquefaction prior to processing as described below. Only ejaculates whose semen parameters (total fluid volume, sperm concentration, motility and morphology) meet the (2010) normality criteria established by the WHO (2010) were processed. Ejaculates were submitted to discontinuous gradient centrifugation (Sperm Wash Gradient Set (45% and 90%)) for 20 min at 300 g at room temperature. […] The pellet was then resuspended in 1 mL of non-capacitating (NC) media and sperm concentration was determined using a Neubauer counting chamber under an optical microscope (×100 magnification). Due to the low number of spermatozoa obtained in each ejaculate, different ejaculates were pooled for different assessments. Finally, depending on experimental design spermatozoa were diluted in 1 ml of capacitating (CAP media containing 26 mg/mL of BSA and 25 mM of bicarbonate) or NC at a final concentration of 20×10^6/ml for 6 hours at 37° C. in presence or absence of the activator. YK-3-237 was added at the referred concentration at time 0 of incubation and keep along the time of sperm incubation.
For the Western blot analysis, spermatozoa were washed twice in phosphate-buffered saline (PBS) by centrifugation at 5000 g for 3 min at room temperature. The pellet was resuspended in 2×Laemmli sample buffer and incubated over night at 4° C. The samples were then centrifuged again (10000 g, 15 min, 4° C.) and the protein concentration was measured using a Bio-Rad DC Protein Assay. […] The phosphorylation state of the sperm proteins was analysed by overnight incubation at 4° C. with an anti-phosphotyrosine monoclonal antibody (mAb; Clone 4G10, Millipore; diluted 1:3000, v/v, in Tris-buffered saline-Tween 20 solution (TBST) containing 3% milk). The levels of sperm lipid peroxidation was evaluated by overnight incubation at 4° C. with an anti-4-hydroxynonenal (4HNE) antibody (pAb; Millipore; diluted 1:3000, v/v, in Tris-buffered saline-Tween 20 solution (TBST) containing 3% BSA. Membranes incubated with anti-phosphotyrosine were incubated for 60 min at room temperature with a horseradish peroxidase (HRP)-conjugated secondary anti-mouse antibody (diluted 1:5000, v/v, in TBST containing or 3% milk). Membranes incubated with anti-4HNE were incubated for 60 min at room temperature with a horseradish peroxidase (HRP)-conjugated secondary anti-goat antibody (diluted 1:5000, v/v, in TBST containing or 3% BSA). […]
Membranes' fluorescence was read with the BioRad FX-Pro-plus (Bio-Rad, Hemel Hempstead, UK). […] Western blotting regions of interest (ROIs) used for quantification are indicated by a vertical bar on the right of the respective western blot. […]

Structure (SMILES): COc1ccc(/C=C/C(=O)c2cc(OC)c(OC)c(OC)c2)cc1B(O)O [YK-3-237, B-[2-methoxy-5-[(1E)-3-oxo-3-(3,4,5-trimethoxyphenyl)-1-propen-1-yl]phenyl]-boronic acid]
- effect on breast cancer cells (breast cancer cells): antiproliferative effect
- effect on sperm viability (human spermatozoa [1]; 10 μM): did not affect sperm viability
- effect on sperm viability, all concentrations tested (human spermatozoa [1]; 37° C., different concentrations): none of the concentration tested had detrimental effect
- effect on renal fibroblast and renal fibrogenesis (renal fibroblast): promotes renal fibroblast activation and aggravates renal fibrogenesis
- tyrosine phosphorylation levels, co-incubation in presence of bicarbonate (human spermatozoa [2]; 10 μM, 6 hours, bicarbonate present): increases the tyrosine phosphorylation levels
- tyrosine phosphorylation levels, complete capacitating media containing bicarbonate and BSA (human spermatozoa [2]; 10 μM, 6 hours, compared with bicarbonate alone): further improved
- tyrosine phosphorylation levels in comparison with control (human spermatozoa [2]; 6 hours co-incubation, capacitating media (HCO3 25 mM, BSA 26 mg/mL), 37° C., vs control 6 hours): tripled
- best concentration which enhanced tyrosine phosphorylation levels (human spermatozoa [2]; 6 hours incubation in capacitating conditions (bicarbonate and BSA)): 10 µM
- increase of tyrosine phosphorylation levels (human spermatozoa [2]; human sperm, capacitating conditions, FIGS. 1A, 2A and 3A): up to 3 folds
